According to patent US10874745B2, “Antimicrobial peptides and methods of treating gram-negative pathogens: polar and non-polar face analogs” (priority 2017, dated 2020):
≈ marks a conversion by molar mass, not a printed value. Where “and” joins values, the source holds several entries; their conditions need not be identical. Identical values can stand only once. Like-named read-outs stand apart in the source and are kept apart here. Non-standard residues stand in square brackets, D forms with d. Residues, ends and D or L forms follow the SMILES beside them. dDab = NCC[C@@H](N)C(=O)O

Experiments:
Hemolytic activity = type: cell-based, human; conditions: 1% human erythrocytes (red blood cells), pH 7.4
Description: Hemoglobin release was determined spectrophotometrically at 570 nm. […] […] […] With the peptides used in this study the inventors used the HC30/MIC ratio value to calculate the therapeutic index.

[1] = tested on: A. baumannii strains resistant to Polymyxin B and Colistin; type: cell-based
MSSA = test: Resistance profile of MSSA strains; type: cell-based, Staphylococcus aureus; parameters: key: R denotes resistant; S denotes sensitive
MRSA = test: Resistance profile of MRSA strains; type: cell-based, Staphylococcus aureus; parameters: key: R denotes resistant; S denotes sensitive
[2] = 50% hemolysis of human red blood cells after 18 hours at 37° C., read-out: HC50

Q: Which HC50 at 18 h (Hemolytic activity; human) does the source give for `CC(=O)N[C@H](CCCCN)C(=O)N[C@H](CC(C)C)C(=O)N[C@H](CCCN)C(=O)N[C@H](CO)C(=O)N[C@H](CC(C)C)C(=O)N[C@H](CC(C)C)C(=O)N[C@H](CCCN)C(=O)N[C@@H](C(=O)N[C@H](CC(C)C)C(=O)N[C@H](CO)C(=O)N[C@H](CCCN)C(=O)N[C@H](C)C(=O)N[C@H](CCCCN)C(=O)N[C@H](C)C(=O)N[C@H](C)C(=O)N[C@H](CCCCN)C(=O)N[C@H](CC(C)C)C(=O)N[C@H](CCCN)C(=O)N[C@@H](C(=O)N[C@H](CC(C)C)C(=O)N[C@H](CC(C)C)C(=O)N[C@H](CCCN)C(=O)N[C@H](C)C(=O)N[C@H](CC(C)C)C(=O)N[C@H](CO)C(=O)N[C@H](CCCN)C(N)=O)[C@H](C)O)[C@H](C)O` [Peptide D85, Ac-KL(Orn)SLL(Orn)TLS(Orn)AKAAKL(Orn)TLL(Orn)ALS(Orn)-amide] here?
A: Its HC50 at 18 h is 406 µg/mL.

Q: What about the MIC ([1]; strain MB9941 (Table 9C)) of the same molecule?
A: The MIC was 0.7 µM (≈ 1.95 µg/mL).

Q: What about the MIC ([1]; strain MB9949 (Table 9C)) of the same molecule?
A: Its MIC is 0.7 µM (≈ 1.95 µg/mL).

Q: What about the MIC ([1]; strain MB9951 (Table 9C)) of the same molecule?
A: Its MIC is 0.7 µM (≈ 1.95 µg/mL).

Q: And the MIC ([1]; strain MB9952 (Table 9C))?
A: Its MIC is 0.4 µM (≈ 1.11 µg/mL).

Q: What about the MIC ([1]; strain MB9953 (Table 9C)) of the same molecule?
A: Its MIC is 0.4 µM (≈ 1.11 µg/mL).

Q: And the MIC ([1]; strain MB9955 (Table 9C))?
A: Its MIC is 0.4 µM (≈ 1.11 µg/mL).

Q: What about the MIC ([1]; strain MB9963 (Table 9C)) of the same molecule?
A: The MIC was 0.4 µM (≈ 1.11 µg/mL).

Q: For `CC(=O)N[C@H](CCCCN)C(=O)N[C@H](CC(C)C)C(=O)N[C@H](CCN)C(=O)N[C@H](CO)C(=O)N[C@H](CC(C)C)C(=O)N[C@H](CC(C)C)C(=O)N[C@H](CCN)C(=O)N[C@@H](C(=O)N[C@H](CC(C)C)C(=O)N[C@H](CO)C(=O)N[C@H](C)C(=O)N[C@H](C)C(=O)N[C@H](CCCCN)C(=O)N[C@H](CCN)C(=O)N[C@H](CCN)C(=O)N[C@H](CCCCN)C(=O)N[C@H](CC(C)C)C(=O)N[C@H](C)C(=O)N[C@@H](C(=O)N[C@H](CC(C)C)C(=O)N[C@H](CC(C)C)C(=O)N[C@H](CCN)C(=O)N[C@H](C)C(=O)N[C@H](CC(C)C)C(=O)N[C@H](CO)C(=O)N[C@H](CCN)C(N)=O)[C@H](C)O)[C@H](C)O` [Peptide D89, Ac-KL(Dbu)SLL(Dbu)TLSAAK(Dbu)(Dbu)KLATLL(Dbu)ALS(Dbu)-amide] (Ac-[dK][dL][dDab][dS][dL][dL][dDab][dT][dL][dS][dA][dA][dK][dDab][dDab][dK][dL][dA][dT][dL][dL][dDab][dA][dL][dS][dDab]-NH2), which HC50 at 18 h (Hemolytic activity; human) is on record?
A: Its HC50 at 18 h is > 3000 µg/mL and > 1.11 mM.

Q: What about the MIC ([1]; strain MB9941 (Table 9C)) of the same molecule?
A: Its MIC is 0.7 µM (≈ 1.89 µg/mL).

Q: What about the MIC ([1]; strain MB9949 (Table 9C)) of the same molecule?
A: The MIC was 0.7 µM (≈ 1.89 µg/mL).

Q: What about the MIC ([1]; strain MB9951 (Table 9C)) of the same molecule?
A: Its MIC is 0.7 µM (≈ 1.89 µg/mL).

Q: What about the MIC ([1]; strain MB9952 (Table 9C)) of the same molecule?
A: Its MIC is 0.7 µM (≈ 1.89 µg/mL).

Q: What about the MIC ([1]; strain MB9953 (Table 9C)) of the same molecule?
A: Its MIC is 0.7 µM (≈ 1.89 µg/mL).

Q: And the MIC ([1]; strain MB9955 (Table 9C))?
A: Its MIC is 0.7 µM (≈ 1.89 µg/mL).

Q: What about the MIC ([1]; strain MB9963 (Table 9C)) of the same molecule?
A: The MIC was 0.7 µM (≈ 1.89 µg/mL).

Q: With `CC(=O)N[C@H](CCCCN)C(=O)N[C@H](CC(C)C)C(=O)N[C@H](CCCNC(=N)N)C(=O)N[C@H](CO)C(=O)N[C@H](CC(C)C)C(=O)N[C@H](CC(C)C)C(=O)N[C@H](CCCNC(=N)N)C(=O)N[C@@H](C(=O)N[C@H](CC(C)C)C(=O)N[C@H](CO)C(=O)N[C@H](CCCNC(=N)N)C(=O)N[C@H](C)C(=O)N[C@H](CCCCN)C(=O)N[C@H](C)C(=O)N[C@H](C)C(=O)N[C@H](CCCCN)C(=O)N[C@H](CC(C)C)C(=O)N[C@H](CCCNC(=N)N)C(=O)N[C@@H](C(=O)N[C@H](CC(C)C)C(=O)N[C@H](CC(C)C)C(=O)N[C@H](CCCNC(=N)N)C(=O)N[C@H](C)C(=O)N[C@H](CC(C)C)C(=O)N[C@H](CO)C(=O)N[C@H](CCCNC(=N)N)C(N)=O)[C@H](C)O)[C@H](C)O` [Peptide D87, Ac-KL(Arg)SLL(Arg)TLS(Arg)AKAAKL(Arg)TLL(Arg)ALs(Arg)-amide] (Ac-[dK][dL][dR][dS][dL][dL][dR][dT][dL][dS][dR][dA][dK][dA][dA][dK][dL][dR][dT][dL][dL][dR][dA][dL][dS][dR]-NH2) as the molecule, how does the HC50 at 18 h (Hemolytic activity; [2]) read?
A: Its HC50 at 18 h is 12 µg/mL.

Q: What does the source list for Polymyxin B [reference compound]?
A: MICGM ([1]; geometric mean, 7 A. baumannii strains resistant to polymyxin B and colistin): >25 µM; MIC ([1]; strain M89941): >25 µM; MIC ([1]; strain M89949): >25 µM; MIC ([1]; strain M89951): >25 µM; MIC ([1]; strain M89952): >25 µM; MIC ([1]; strain M89953): >25 µM; MIC ([1]; strain M89955): >25 µM; MIC ([1]; strain M89963): >25 µM

Q: For `CCC[C@@H]1C[C@@H](C(=O)N[C@@H]([C@H]2O[C@H](SC)[C@H](O)[C@@H](O)[C@H]2O)[C@H](C)Cl)N(C)C1` [Clindamycin], which “Antibiotic Susceptibility” value (MSSA; MSSA strain BL7429 (Blood)) is on record?
A: Its value is “S”.

Q: And the “Antibiotic Susceptibility” value (MSSA; MSSA strain M21913 (Finger))?
A: The value was “S”.

Q: And the “Antibiotic Susceptibility” value (MSSA; MSSA strain M22075 (Axilla))?
A: The value was “S”.

Q: What about the “Antibiotic Susceptibility” value (MSSA; MSSA strain M22097 (Neck)) of the same molecule?
A: The value was “S”.

Q: What about the “Antibiotic Susceptibility” value (MSSA; MSSA strain M22274 (Spine)) of the same molecule?
A: Its value is “S”.

Q: What about the “Antibiotic Susceptibility” value (MSSA; MSSA strain M22287 (Hip)) of the same molecule?
A: Its value is “S”.

Q: What about the “Antibiotic Susceptibility” value (MSSA; MSSA strain M22300 (Finger)) of the same molecule?
A: Its value is “S”.

Q: What about the “Antibiotic Susceptibility” value (MSSA; MSSA strain M22312 (Finger)) of the same molecule?
A: The value was “S”.

Q: And the “Antibiotic Susceptibility” value (MSSA; MSSA strain M22315)?
A: Its value is “S”.

Q: And the “Antibiotic Susceptibility” value (MRSA; MRSA strain M21742 (Nose))?
A: The value was “S”.

Q: What about the “Antibiotic Susceptibility” value (MRSA; MRSA strain M21756 (Nose)) of the same molecule?
A: Its value is “S”.

Q: What about the “Antibiotic Susceptibility” value (MRSA; MRSA strain M22111 (Ear)) of the same molecule?
A: The value was “R”.

Q: And the “Antibiotic Susceptibility” value (MRSA; MRSA strain M22130)?
A: Its value is “S”.

Q: And the “Antibiotic Susceptibility” value (MRSA; MRSA strain M22224 (Leg))?
A: The value was “S”.

Q: What about the “Antibiotic Susceptibility” value (MRSA; MRSA strain M22354) of the same molecule?
A: The value was “S”.

Q: And the “Antibiotic Susceptibility” value (MRSA; MRSA strain M22360 (Labia))?
A: The value was “S”.

Q: What about the “Antibiotic Susceptibility” value (MRSA; MRSA strain M22424 (Arm)) of the same molecule?
A: Its value is “S^c”.

Q: Which HC50 at 18 h (Hemolytic activity; [2]) does the source give for `CC(=O)N[C@H](CCCCN)C(=O)N[C@H](CC(C)C)C(=O)N[C@H](CCCCN)C(=O)N[C@H](CO)C(=O)N[C@H](CC(C)C)C(=O)N[C@H](CC(C)C)C(=O)N[C@H](CCCCN)C(=O)N[C@@H](C(=O)N[C@H](CC(C)C)C(=O)N[C@H](CO)C(=O)N[C@H](C)C(=O)N[C@H](C)C(=O)N[C@H](CCCCN)C(=O)N[C@H](CCCCN)C(=O)N[C@H](CCCCN)C(=O)N[C@H](CCCCN)C(=O)N[C@H](CC(C)C)C(=O)N[C@H](C)C(=O)N[C@@H](C(=O)N[C@H](CC(C)C)C(=O)N[C@H](CC(C)C)C(=O)N[C@H](CCCCN)C(=O)N[C@H](C)C(=O)N[C@H](CC(C)C)C(=O)N[C@H](CO)C(=O)N[C@H](CO)C(N)=O)[C@H](C)O)[C@H](C)O` [Peptide D103, Ac-KL(Lys)SLL(Lys)TLSAAK(Lys)(Lys)KLATLL(Lys)ALSS-amide] (Ac-[dK][dL][dK][dS][dL][dL][dK][dT][dL][dS][dA][dA][dK][dK][dK][dK][dL][dA][dT][dL][dL][dK][dA][dL][dS][dS]-NH2) here?
A: Its HC50 at 18 h is 381 µg/mL and 135 µM.
